The target in one test is T1, adenosine A2 receptor (Rattus norvegicus, UniProt P30543).
T1 construct: 5 mg original tissue weight of rat weight of rat striatal membranes; tissue Pel-Freez (Rogers, Arkansas); host or cells: rat brain striatum membranes (Sprague-Dawley; Long-Evans hooded rats gave essentially identical results)
As to the kind of experiment: Adenosine Receptor Binding, A2 Receptor Affinity (RBA2), [3H]NECA, rat striatal membranes. The conditions noted are these: 4 nM [3H]NECA, 50 nM N6-cyclopentyladenosine. The procedure: Brains from 200-500 g mixed sex Sprague-Dawley rats were purchased from Pel-Freez (Rogers, Arkansas). Fresh brains from male Long-Evans hooded rats (Blue Spruce Farms, Altamont, NY) gave essentially identical results. Brains were thawed and then kept on ice while the striata were dissected out. Striata were disrupted in 10 vol of ice-cold 50 mM Tris.HCl (pH 7.7 at 25° C., pH 8.26 at 5° C.) (Tris) for 30 seconds in a Polytron PT-10 (Brinkmann) at setting 5. The suspension was centrifuged at 50,000 xg for ten minutes, the supernatant discarded, the pellet resuspended in 10 vol ice-cold Tris as above, recentrifuged, resuspended at 1 g/5 ml, and stored in plastic vials at -70° C. (stable for at least six months). When needed, tissue was thawed at room temperature, disrupted in a Polytron, and kept on ice until used. […]
Incubations were terminated by filtration through 2.4 cm GF/B filters under reduced pressure. […] Filters were put in scintillation vials, 8 ml of Formula 947 scintillation fluid added, and the vials left overnight, shaken, and counted in a liquid scintillation counter at 40% efficiency.
Nonspecific binding was defined as binding in the presence of 100 μM N^6 -cyclopentyladenosine, and specific binding was defined as total binding minus nonspecific binding. The IC50 was calculated by weighted nonlinear least squares curve-fitting to the mass-action equation. […]

Another test addresses T2, adenosine A1 receptor (Rattus norvegicus, UniProt P25099).
T2 construct: Whole brain minus cerebellum and brainstem from male Long Evans rats; from tissue; host or cells: whole brain minus cerebellum and brainstem, male Long Evans rats, membranes
T2 sequence (P25099 1-326): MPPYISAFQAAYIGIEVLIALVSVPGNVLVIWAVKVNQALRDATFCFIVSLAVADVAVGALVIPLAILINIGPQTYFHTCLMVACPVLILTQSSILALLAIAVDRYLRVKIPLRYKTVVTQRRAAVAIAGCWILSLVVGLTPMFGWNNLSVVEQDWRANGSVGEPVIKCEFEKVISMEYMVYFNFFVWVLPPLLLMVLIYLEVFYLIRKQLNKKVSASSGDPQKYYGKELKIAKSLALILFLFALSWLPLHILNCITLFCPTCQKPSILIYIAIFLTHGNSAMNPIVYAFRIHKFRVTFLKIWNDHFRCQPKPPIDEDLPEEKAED
The test is described as follows: Adenosine Receptor Binding, A1 Receptor Affinity (RBA1), [3H]-CHA. As to conditions: rat brain membranes, 1.0 nM [3H]-CHA. The protocol: Whole brain minus cerebellum and brainstem from male Long Evans rats (150-200 g) was homogenized in 30 volumes of ice-cold 0.05M Tris-HCl buffer pH 7.7 using a Brinkman Polytron PT-10, (setting number 6 for 20 seconds) and centrifuged for ten minutes at 20,000 × g (Sorvall RC-2), 4° C. The supernatant was discarded, and the pellet was resuspended and centrifuged as before. The pellet was resuspended in 20 ml Tris-HCl buffer containing two International Units/ml of adenosine deaminase (Sigma type III from calf intestinal mucosa), incubated at 37° C. for 30 minutes, then subsequently at 0° C. for ten minutes. […]
Tissue homogenate (10 mg/ml) was incubated in 0.05M Tris-HCl buffer pH 7.7 containing 1.0 nM [^3 H]-N^6 -cyclohexyladenosine (^3 H]-CHA) with or without test agents in triplicate for one hour at 25° C. […] The radio-labeled ligand retained on the filter was measured by liquid scintillation spectrophotometry after shaking the filters for one hour or longer on a mechanical shaker in 10 ml of Beckman Ready-Solv HP scintillation cocktail.
Nonspecific binding was defined as the binding which occurred in the presence of 1 mM theophylline. […] The Scatchard plot was calculated by linear regression of the line obtained by plotting the amount of radioligand bound (pmoles/gram of tissue) versus [formula] […] The maximal number of binding sites (Bmax) was calculated from the Scatchard plot.

The values below come from patent US4626526A, “(S)-N^6 -2-hydroxypropyladenosines” (Warner-Lambert Company, priority 1984, dated 1986).

In general, IC50 refers to the concentration that inhibits the measured activity by half.

T1 sequence (P30543 whole entry): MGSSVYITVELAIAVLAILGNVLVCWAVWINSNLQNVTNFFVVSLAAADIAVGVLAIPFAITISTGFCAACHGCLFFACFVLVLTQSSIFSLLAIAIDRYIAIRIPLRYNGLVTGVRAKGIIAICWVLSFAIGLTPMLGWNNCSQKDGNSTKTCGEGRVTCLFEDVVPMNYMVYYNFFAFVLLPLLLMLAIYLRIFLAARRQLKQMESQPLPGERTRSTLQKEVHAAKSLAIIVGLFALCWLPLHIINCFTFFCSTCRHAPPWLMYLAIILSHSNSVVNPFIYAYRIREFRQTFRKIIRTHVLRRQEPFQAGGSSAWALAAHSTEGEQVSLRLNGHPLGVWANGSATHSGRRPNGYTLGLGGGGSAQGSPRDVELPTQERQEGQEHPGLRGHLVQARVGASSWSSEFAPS

Take `C[C@H](O)CNc1ncnc2c1ncn2[C@@H]1O[C@H](CO)[C@@H](O)[C@H]1O` [N^6-[(S)-2-hydroxypropyl]adenosine, N^6-[(S)-2-Hydroxypropyl]adenosine]: the IC50 at adenosine A2 receptor is 14 µM; at adenosine A1 receptor, 0.006 µM.
